Measurements as given in US5985885A, “Quinazoline-4-amino-2-(piperidine-1-yl-4-substituted) derivatives having antihypertensive activity, a method for their preparation and their pharmaceutical use” (priority 1996, dated 1999).
Counter-ions that a name gives are not always drawn. Like-named read-outs stand apart in the source and are kept apart here. Each block holds one compound with its values, some of them ahead of it.

Tests used:
[1] = molecular target: T1, alpha1B adrenergic receptor (rat liver) (Rattus norvegicus, UniProt P15823); assay: [3H]-prazosin binding in rat liver
T1 sequence (P15823 1-515): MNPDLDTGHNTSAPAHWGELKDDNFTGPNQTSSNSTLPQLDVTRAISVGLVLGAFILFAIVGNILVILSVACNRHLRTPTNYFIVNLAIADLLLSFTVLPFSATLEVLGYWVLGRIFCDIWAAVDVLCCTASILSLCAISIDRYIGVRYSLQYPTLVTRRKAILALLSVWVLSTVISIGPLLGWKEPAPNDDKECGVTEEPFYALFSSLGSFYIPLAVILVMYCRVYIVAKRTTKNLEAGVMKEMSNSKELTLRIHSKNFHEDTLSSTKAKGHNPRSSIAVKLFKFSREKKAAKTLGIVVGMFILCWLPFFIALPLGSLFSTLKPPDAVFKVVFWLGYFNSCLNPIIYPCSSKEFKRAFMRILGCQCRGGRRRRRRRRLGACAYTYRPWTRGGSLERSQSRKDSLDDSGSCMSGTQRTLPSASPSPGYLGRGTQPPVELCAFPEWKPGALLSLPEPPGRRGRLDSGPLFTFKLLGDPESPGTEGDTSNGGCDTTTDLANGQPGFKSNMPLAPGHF

[2] = tested on: spontaneously hypertensive (SHR) rat; assay: Anti-hypertensive activity in the spontaneously hypertensive (SHR) rat (oral); type: in vivo; conditions: for ED20: Rattus norvegicus, 2 h, read-out: Systolic pressure ED20 (0-120 min)
Source text: Animals having a mean basal systolic pressure of not less than 180 mmHg were used.

[3] = molecular target: T2, alpha1A adrenergic receptor (rat GSM) (Rattus norvegicus, UniProt P43140); assay: [3H]-prazosin binding in rat submaxillary glands (GSM); conditions: alpha1A subtype, pH 7.4, 45 min, 25° C., read-out: Inhibition of the binding of [3H]-prazosin IC50
T2 sequence (P43140 1-466): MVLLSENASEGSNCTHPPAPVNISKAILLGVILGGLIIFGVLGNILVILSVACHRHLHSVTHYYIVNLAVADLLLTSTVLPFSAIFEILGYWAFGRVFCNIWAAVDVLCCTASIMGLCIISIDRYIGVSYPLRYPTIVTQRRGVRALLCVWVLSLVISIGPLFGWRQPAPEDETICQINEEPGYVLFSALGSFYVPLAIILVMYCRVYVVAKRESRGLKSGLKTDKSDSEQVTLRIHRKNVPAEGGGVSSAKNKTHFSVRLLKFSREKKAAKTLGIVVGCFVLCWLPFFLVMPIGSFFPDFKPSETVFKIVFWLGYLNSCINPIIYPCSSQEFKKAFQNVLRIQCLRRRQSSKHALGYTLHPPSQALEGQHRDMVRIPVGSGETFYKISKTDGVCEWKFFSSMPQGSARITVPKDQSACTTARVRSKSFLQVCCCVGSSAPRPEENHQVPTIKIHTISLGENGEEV

[4] = molecular target: T3, 5-HT2 receptors (isolated rabbit aorta) (Oryctolagus cuniculus, UniProt G1SYA7); assay: Antagonism of serotonin-induced contraction of isolated rabbit aorta; conditions: for IC50: isolated rabbit aorta, 37° C., compound 10 min before agonist, limits (p < 0.05); for 5-HT2-antagonist activity (in words): rabbit aorta
T3 construct: Four rings formed from rabbit aorta were joined together to form a chain; from tissue; host or cells: isolated rabbit aorta rings
T3 sequence (G1SYA7 1-469): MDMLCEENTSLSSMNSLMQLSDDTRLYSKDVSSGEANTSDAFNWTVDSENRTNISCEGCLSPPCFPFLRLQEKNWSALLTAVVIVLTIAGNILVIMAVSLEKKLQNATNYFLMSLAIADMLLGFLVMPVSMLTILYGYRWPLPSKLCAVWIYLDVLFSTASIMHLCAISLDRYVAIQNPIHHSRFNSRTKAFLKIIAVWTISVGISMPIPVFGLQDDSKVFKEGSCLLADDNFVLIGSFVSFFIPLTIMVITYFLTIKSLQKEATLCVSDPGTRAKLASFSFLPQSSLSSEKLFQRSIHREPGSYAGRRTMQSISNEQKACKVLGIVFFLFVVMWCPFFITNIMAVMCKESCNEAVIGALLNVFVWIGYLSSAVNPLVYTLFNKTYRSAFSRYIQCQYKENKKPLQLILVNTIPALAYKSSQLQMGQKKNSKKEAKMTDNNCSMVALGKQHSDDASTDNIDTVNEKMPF
Procedure: The antagonist activity of some of the compounds of the invention on the contractile activity of seratonin on isolated rabbit aorta, effected principally by way of the 5-HT2 receptors, is reported here by way of example. The method of Feniuk et al [Br. J. Pharmacol. (1985), 86, 697-704] was used, with slight modifications. Four rings formed from rabbit aorta were joined together to form a chain; the preparation was placed in an isolated organ bath in the presence of Krebs at 37° C. and attached to an isometric transducer, a tension of 2 g being applied and oxygenation was carried out continuously with O2 --CO2 (95-5 v/v). A seratonin concentration(0.3 μM) was used that was capable of causing sub-maximal contraction of the preparation. […] The results obtained in this way are given in Table 4 below which, for several of the compounds of the invention gives IC50 values calculated by the regression method on a set of at least 2 experiments at 5 different concentrations for each of the compounds examined, these being compared with values obtained for several reference compounds.

[5] = tested on: anaesthetised normotensive rat; assay: Hypotensive activity in the anaesthetised normotensive rat (IV); type: in vivo; conditions: for ED30: Rattus norvegicus, read-out: Reduction in mean arterial pressure ED30
Procedure: In order to evaluate the in vivo activity, some of the compounds of the invention were administered (IV) in bolus form to the normotensive rat anaesthetised with urethane plus ketamine. The compounds were administered in at least three doses in experiments performed in duplicate so as to enable the calculation of ED30 values, that is, the dose in mg/kg that reduces the mean basal arterial pressure by 30%. The compounds of the invention, and several reference standards, were dissolved in dilute hydrochloric acid at a physiologically acceptable pH, and physiological solution was administered in a volume of 3 ml/kg. Evaluations were made at two time periods, that is, the intervals 0-30 min and 30-60 min after administration.

[6] = molecular target: alpha1A + alpha1C adrenergic receptor (human prostate); assay: [3H]-prazosin binding in human prostate; conditions: alpha1A + alpha1C subtype, pH 7.5, 30 min, 25° C., read-out: Inhibition of the binding of [3H]-prazosin IC50
in vivo = conditions: rat
[7] = tested on: alpha1A, alpha1B and alpha1C adrenergic receptor subtypes; assay: [3H]-prazosin binding, alpha1 subtypes together (Table 3 overall); conditions: reference compounds versus compounds of the invention/prazosin
[8] = 0.5 h, IV bolus, interval 0-30 min
[9] = 1 h, IV bolus, interval 30-60 min

IC50 [1]: 6 nM
Cardiac frequency, max effect at 3 mg/kg ([2]; 3 mg/kg): +2.7 % vs basal
IC50 [3]: 4.1 nM
IC50 [4]: 88.3 µM
IC50 [6]: 4.5 nM
SMILES: COc1cc2nc(N3CCC(c4cccs4)CC3)nc(N)c2cc1OC [Compound 6]
Systolic pressure, max effect at 3 mg/kg ([2]; 3 mg/kg): -8.4 % vs basal
ED30 [5, 8]: 0.06 mg/kg
ED30 [5, 9]: 0.08 mg/kg

IC50 [1]: 8.2 nM
Cardiac frequency, max effect at 3 mg/kg ([2]; 3 mg/kg): +0.9 % vs basal
IC50 [3]: 3.1 nM
IC50 [4]: 54.7 µM
IC50 [6]: 5 nM
bioavailability (in vivo; plasma, po, 15 mg/kg OS vs 1 mg/kg IV, read-out: relative bioavailability (AUC OS/AUC IV, dose corrected)): ~80%
AUC (in vivo; plasma, po, OS 15 mg/kg): 3620 ng·h/mL
concentration at 0.25 h (in vivo; plasma, po, OS 15 mg/kg): 230 ng/mL
concentration at 0.5 h (in vivo; plasma, po, OS 15 mg/kg): 360 ng/mL
concentration at 1 h (in vivo; plasma, po, OS 15 mg/kg): 480 ng/mL
concentration at 2 h (in vivo; plasma, po, OS 15 mg/kg): 390 ng/mL
concentration at 3 h (in vivo; plasma, po, OS 15 mg/kg, 3 h): 340 ng/mL
concentration at 4 h (in vivo; plasma, po, OS 15 mg/kg, 4 h): 320 ng/mL
concentration at 6 h (in vivo; plasma, po, OS 15 mg/kg, 6 h): 280 ng/mL
concentration at 8 h (in vivo; plasma, po, OS 15 mg/kg, 8 h): 180 ng/mL
concentration at 12 h (in vivo; plasma, po, OS 15 mg/kg, 12 h): 80 ng/mL
AUC (in vivo; plasma, IV 1 mg/kg): 300 ng·h/mL
concentration at 0.083 h (in vivo; plasma, IV 1 mg/kg, 0.083 h): 420 ng/mL
concentration at 0.25 h (in vivo; plasma, IV 1 mg/kg): 300 ng/mL
concentration at 0.5 h (in vivo; plasma, IV 1 mg/kg): 180 ng/mL
concentration at 1 h (in vivo; plasma, IV 1 mg/kg): 100 ng/mL
concentration at 2 h (in vivo; plasma, IV 1 mg/kg): 40 ng/mL
Plasma concentration (in vivo; IV 1 mg/kg, 6 h): 0 µg/mL
concentration at 3 h (in vivo; plasma, iv, 1 mg/kg): 20 ng/mL
concentration at 4 h (in vivo; plasma, iv, 1 mg/kg): 10 ng/mL
concentration at 24 h (in vivo; plasma, po, 15 mg/kg): 20 ng/mL
half-life (in vivo; plasma, read-out: half-life, terminal elimination phase (converted)): ~360 min
SMILES: COc1cc2nc(N3CCC(c4ccccn4)CC3)nc(N)c2cc1OC [Compound 7, 1-(4-amino-6,7-dimethoxy-2-quinazolinyl)-4-(2-pyridyl)piperidine(hydrochloride)]
anti-hypertensive action (in words) [2]: about as powerful as prazosin
Systolic pressure, max effect at 3 mg/kg ([2]; 3 mg/kg): -22.7 % vs basal
ED20 ([2]; 0-120 min, NC: not calculable): 2.2 mg/kg
ED30 [5, 8]: 0.08 mg/kg
ED30 [5, 9]: 0.09 mg/kg

IC50 [1]: 5.2 nM
Cardiac frequency, max effect at 3 mg/kg ([2]; 3 mg/kg): -5.2 % vs basal
IC50 [3]: 18.4 nM
IC50 [4]: 16.6 µM
IC50 [6]: 20 nM
SMILES: COc1cc2nc(N3CCC(c4cc5ccccc5o4)CC3)nc(N)c2cc1OC [Compound 8]
anti-hypertensive action (in words) [2]: about as powerful as prazosin
Systolic pressure, max effect at 3 mg/kg ([2]; 3 mg/kg): -20.2 % vs basal
ED20 ([2]; 0-120 min, NC: not calculable): 2.6 mg/kg
ED30 [5, 8]: 0.07 mg/kg
ED30 [5, 9]: 0.09 mg/kg

Cardiac frequency, max effect at 3 mg/kg ([2]; 3 mg/kg): +9.7 % vs basal
increase in cardiac frequency over the basal frequency ([2]; 3 mg/kg, significant): approximately 10%
IC50 [4]: > 130 µM
5-HT2-antagonist activity (in words) [4]: inactive until higher doses (50 μg/ml)
SMILES: COc1cc2nc(N3CCN(C(=O)c4ccco4)CC3)nc(N)c2cc1OC [Prazosin, reference compound]
Systolic pressure, max effect at 3 mg/kg ([2]; 3 mg/kg): -20.0 % vs basal
ED20 ([2]; 0-120 min, NC: not calculable): 2.8 mg/kg
ED30 [5, 8]: 0.02 mg/kg
ED30 [5, 9]: 0.05 mg/kg

SMILES: COc1ccc(CCN(C)CCCC(C#N)(c2ccc(OC)c(OC)c2)C(C)C)cc1OC (stereo not drawn) [Verapamil, reference compound]
Cardiac frequency, max effect at 3 mg/kg ([2]; 3 mg/kg): +2.8 % vs basal
Systolic pressure, max effect at 3 mg/kg ([2]; 3 mg/kg): -9.0 % vs basal
reduction of arterial pressure ([2]; 3 mg/kg): ≤ 9%
hypotensive activity compared with prazosin/compounds (in words) ([5]; IV bolus): less active
ED30 ([5]; iv, 0.5 h): 0.63 mg/kg
ED30 ([5]; iv, 1 h): 1.06 mg/kg

SMILES: COc1cccc(OC)c1OCCNCC1COc2ccccc2O1 (stereo not drawn) [WB-4101, reference compound]
anti-hypertensive action (in words) [2]: inactive
Systolic pressure ED20 (0-120 min) ([2]; 0-120 min, NC: not calculable): INACTIVE
Cardiac frequency, max effect at 3 mg/kg ([2]; 3 mg/kg): -5.7 % vs basal
Systolic pressure, max effect at 3 mg/kg ([2]; 3 mg/kg): -2.6 % vs basal
IC50 [3]: 16.5 nM
IC50 [4]: > 145 µM
5-HT2-antagonist activity (in words) [4]: inactive until higher doses (50 μg/ml)
hypotensive activity compared with prazosin/compounds (in words) ([5]; IV bolus): less active
ED30 ([5]; iv, 0.5 h): 0.13 mg/kg
ED30 ([5]; iv, 1 h): 0.29 mg/kg
times less powerful (on average) [7]: 10 to 30 times
